In patent US20040132764A1, “Antibiotics for the treatment of infections in acidic environments” (Morphochem Aktiengesellschaft fuer Kombinatorische Chemie, priority 2002, published 2004) one finds MIC data, which are given here for four compounds.

The test system of this assay is bacterial strains from the Morphochem collection. Put plainly: MIC determination by microdilution method (NCCLS guidelines, IsoSensitest broth) with pH of the test medium varied. The note with it: strain not named. Format: cell-based. Here is the method:
MICs (minimal inhibitory concentrations) were determined by a microdilution method following NCCLS guidelines, except that IsoSensitest broth (Oxoid; Basingstroke, UK) was used (National Committee for Clinical Laboratory Standards “Methods for Dilution Antimicrobial Susceptibility Tests for Bacteria that Grow Aerobically”, 4th ed.; Approved standard: NCCLS Document M7-A4; National Committee for Clinical Laboratory Satandars: Villanova, Pa., USA, 1997). The medium was supplemented with 3% lysed horse blood for fastidious organisms. Serial dilutions in 96-well plates were prepared with the help of a Biomek 2000 robot. The pH of the test medium was varied from 7.8 to 6.4. The bacterial strains used were from the Morphochem collection. Clinical isolates were originally obtained from the Kantonspital Basel, Switzerland, and from other European and US hospitals.
pH-dependent antibacterial activity (MIC (μg/mL) at pH): […]

[1] abbreviates: pH 6.4 of test medium, read-out: pH-dependent antibacterial activity (MIC at pH) 6.4.
Where [2] appears, read: pH 6.8 of test medium, read-out: pH-dependent antibacterial activity (MIC at pH) 6.8.
Setting [3] is: pH 7.4 of test medium, read-out: pH-dependent antibacterial activity (MIC at pH) 7.4.
Where [4] appears, read: pH 7.8 of test medium, read-out: pH-dependent antibacterial activity (MIC at pH) 7.8.

SMILES strings stand for the structures. Converted amounts (≈) assume the structure as drawn. Read-outs that look alike come from different tables or passages of the source.

For orientation: MIC means the least concentration at which growth counts as inhibited.

Take `CC(=O)NC[C@H]1CN(c2ccc(N3CCOCC3)c(F)c2)C(=O)O1` [linezolid, reference compound]: the MIC under setting [1] is 0.5 µg/mL (≈ 1.48 µM), the MIC under setting [2] worked out at 0.5 µg/mL (≈ 1.48 µM), the MIC under setting [3] came out at 1 µg/mL (≈ 2.96 µM) and the minimal inhibitory concentration (MIC) under setting [4] stood at 1 µg/mL (≈ 2.96 µM).

For `CC(=O)NC[C@H]1CN(c2ccc(N3CCN(c4nc5c(cc4F)c(=O)c(C(=O)O)cn5C4CC4)CC3)c(F)c2)C(=O)O1` [Example 10], the minimal inhibitory concentration (MIC) by setting is: under setting [1], 0.125 µg/mL (≈ 0.215 µM); under setting [2], 0.25 µg/mL (≈ 0.429 µM); under setting [3], 0.5 µg/mL (≈ 0.858 µM); under setting [4], 1 µg/mL (≈ 1.72 µM).

Turning to `CC(=O)NC[C@H]1CN(c2ccc(N[C@@H]3CCN(c4cc5c(cc4F)c(=O)c(C(=O)O)cn5C4CC4)C3)c(F)c2)C(=O)O1` [Example 4], the MIC reads like this: under setting [1], 0.03 µg/mL (≈ 0.0516 µM); under setting [2], 0.06 µg/mL (≈ 0.103 µM); under setting [3], 0.25 µg/mL (≈ 0.43 µM); under setting [4], 0.5 µg/mL (≈ 0.86 µM).

Take `CC(=O)NC[C@H]1CN(c2ccc(N3CCN(c4cc5c(cc4F)c(=O)c(C(=O)O)cn5C4CC4)CC3)c(F)c2)C(=O)O1` [Example 1, 7-(4-{4-[5-(acetylamino-methyl)-2-oxo-oxazolidin-3-yl]-2-fluoro-phenyl}-piperazin-1-yl)-1-cyclopropyl-6-fluoro-4-oxo-1,4-dihydro-quinoline-3-carboxylic Acid]: the MIC was found to be 0.03 µg/mL (≈ 0.0516 µM) under setting [1], 0.125 µg/mL (≈ 0.215 µM) under setting [2], 0.25 µg/mL (≈ 0.43 µM) under setting [3] and 0.5 µg/mL (≈ 0.86 µM) under setting [4].
